Assay results: patent publication US11395857B2, “Radiolabeled melanocortin 1 receptor-specific alpha-melanocyte-stimulating hormone analogues for imaging or therapy” (PROVINCIAL HEALTH SERVICES AUTHORITY, priority 2018, dated 2022)
Read-outs that look alike come from different tables or passages of the source.

Assay: Biodistribution of 68Ga-labeled peptide in mice bearing B16F10 mouse melanoma
Format: in vivo, C57BL/6J mice
Conditions: iv, total radioactivity, C57BL/6J mice, B16F10 melanoma; for tissue uptake at 1 h: 1 h p.i. unblocked; for tissue uptake at 2 h: 2 h p.i. unblocked
Description: The B16-F10 melanoma cell line (Mus musculus) used in the tumor model was obtained commercially from ATTC (CRL-6475). Cells were cultured in Dulbecco's Modified Eagle's Medium (DMEM, StemCell Technologies) supplemented by 10% FBS, 100 U/mL penicillin and 100 μg/mL streptomycin at 37° C. in a humidified incubator containing 5% CO2. Cells grown to roughly 90% confluence were washed with sterile phosphate-buffered saline (lx PBS, pH 7.4), followed by trypsinization. For tumour implantation, C57BL/6J mice were anesthetized by inhalation with 2% isoflurane in 2.0 L/min of oxygen, 2×10^6 B16-F10 cells were inoculated subcutaneously on right dorsal flank. Mice were imaged or used in biodistribution studies once the tumour reached 6-8 mm in diameter.
Similar to PET/CT imaging, tumour-bearing mice were injected with 1-2 MBq of ^68Ga-labeled CCZ01099 via tail vein under anesthesia with or without co-injection of 0.5 mg of MC1R-specific inhibitor BMS 470539. At 1 or 2 h p.i., the mice were anesthetized again, and euthanized by CO2 inhalation. Blood was promptly withdrawn, and the organs of interest were harvested, rinsed with 1×PBS (pH 7.4), and blotted dry. Each organ was then weighed and the radioactivity of the collected tissue was measured using a Wallac WIZARD2 gamma counter (Perkin Elmer), normalized to the injected dose using a standard curve and expressed as the percentage of the injected dose per gram of tissue (% ID/g). Table 3 summarizes the biodistribution data of ^68Ga-labeled CCZ01099 at 1 and 2 h p.i., as well as 1 h p.i. with co-injection of 0.5 mg of MC1R-specific inhibitor BMS 470539. Minimal background tissue radioactivity accumulation was observed, except for kidney, which is expected as the radiolabeled peptides were cleared through the renal pathway.

[1] = fat, read-out: Biodistribution, Fat
[2] = heart, read-out: Biodistribution, Heart
[3] = intestine, read-out: Biodistribution, Intestine
[4] = kidneys, read-out: Biodistribution, Kidneys
[5] = liver, read-out: Biodistribution, Liver
[6] = lungs, read-out: Biodistribution, Lungs
[7] = muscle, read-out: Biodistribution, Muscle
[8] = pancreas, read-out: Biodistribution, Pancreas
[9] = seminal glands, read-out: Biodistribution, Seminal glands
[10] = spleen, read-out: Biodistribution, Spleen
[11] = stomach, read-out: Biodistribution, Stomach
[12] = testes, read-out: Biodistribution, Testes
[13] = thyroid, read-out: Biodistribution, Thyroid
[14] = whole blood, read-out: Biodistribution, Blood

tissue uptake at 1 h [1]: 0.09 ± 0.04 %ID/g
tissue uptake at 2 h [1]: 0.02 ± 0.01 %ID/g
tissue uptake at 1 h [2]: 0.26 ± 0.07 %ID/g
tissue uptake at 2 h [2]: 0.08 ± 0.01 %ID/g
tissue uptake at 1 h [3]: 0.37 ± 0.11 %ID/g
tissue uptake at 2 h [3]: 0.53 ± 0.38 %ID/g
tissue uptake at 1 h [4]: 5.98 ± 1.24 %ID/g
tissue uptake at 2 h [4]: 4.42 ± 0.55 %ID/g
tissue uptake at 1 h [5]: 0.54 ± 0.07 %ID/g
tissue uptake at 2 h [5]: 0.44 ± 0.08 %ID/g
tissue uptake at 1 h [6]: 0.74 ± 0.14 %ID/g
tissue uptake at 2 h [6]: 0.31 ± 0.05 %ID/g
tissue uptake at 1 h [7]: 0.17 ± 0.05 %ID/g
tissue uptake at 2 h [7]: 0.04 %ID/g
tissue uptake at 1 h [8]: 0.17 ± 0.04 %ID/g
tissue uptake at 2 h [8]: 0.07 ± 0.01 %ID/g
tissue uptake at 1 h [9]: 0.11 ± 0.05 %ID/g
tissue uptake at 2 h [9]: 0.04 ± 0.01 %ID/g
tissue uptake at 1 h [10]: 0.35 ± 0.07 %ID/g
tissue uptake at 2 h [10]: 0.19 ± 0.03 %ID/g
tissue uptake at 1 h [11]: 0.26 ± 0.15 %ID/g
tissue uptake at 2 h [11]: 0.2 ± 0.16 %ID/g
tissue uptake at 1 h [12]: 0.21 ± 0.06 %ID/g
tissue uptake at 2 h [12]: 0.07 ± 0.01 %ID/g
tissue uptake at 1 h [13]: 0.31 ± 0.08 %ID/g
tissue uptake at 2 h [13]: 0.16 ± 0.03 %ID/g
tissue uptake at 1 h [14]: 0.7 ± 0.15 %ID/g
tissue uptake at 2 h [14]: 0.19 ± 0.01 %ID/g
Structure (SMILES): CCCC[C@H](NC(=O)CN1CCC(NC(=O)CN2CCN(CC(=O)O)CCN(CC(=O)O)CCN(CC(=O)O)CC2)CC1)C(=O)N[C@H]1CC(=O)NCCCC[C@@H](C(N)=O)N(C)C(=O)[C@H](Cc2c[nH]c3ccccc23)N(C)C(=O)[C@H](CCCNC(=N)N)N(C)C(=O)[C@@H](Cc2ccccc2)NC(=O)[C@H](Cc2c[nH]cn2)N(C)C1=O [^68Ga-labeled CCZ01099, metal not drawn]
